US20120190752A1, “EXO-S-MECAMYLAMINE METHOD, USE, AND COMPOUND FOR TREATMENT” (Targacept Inc., priority 2009, published 2012)

Tested on: subjects with major depressive disorder (MDD) who were inadequate responders to citalopram
Experiment: HAMD-17 total score, Phase 2b trial of TC-5214 as add-on to citalopram
Type: in vivo, human
Text: The Hamilton Rating Scale for Depression (HRSD), also known as the Hamilton Depression Rating Scale (HDRS) or abbreviated to HAM-D or HAMD, is a multiple choice questionnaire that clinicians may use to rate the severity of a patient's major depression (Hamilton 1967). The questionnaire rates the severity of symptoms observed in depression such as low mood, insomnia, agitation, anxiety and weight loss. The questionnaire is presently one of the most commonly used scales for rating depression in medical research. The clinician chooses the possible responses to each question by interviewing the patient and by observing the patient's symptoms. Each question has multiple possible responses which increase in severity. Although Hamilton's original scale had 17 questions, others later developed HRSD scales with different numbers of questions, the greatest of which is 29 (HRSD-29). Clinicians can use the HRSD in place of, or in conjunction with, the Montgomery-Åsberg Depression Rating Scale (MADRS), the Beck Depression Inventory (BDI), the Zung Self-Rating Depression Scale, the Wechsler Depression Rating Scale, the […] Depression Rating Scale, the Inventory of Depressive Symptomatology (IDS), the Quick Inventory of Depressive Symptomatology (QIDS), and other questionnaires. […] The results on all of the trial's secondary efficacy measures, including assessments of depression, irritability, disability, cognition, severity of illness and global improvement, were also statistically significant in favor of TC-5214 on an intent to treat basis. The Phase 2b trial of TC-5214 as an augmentation treatment for MDD was a two-phase trial conducted at 20 sites in India and three sites in the United States. In the first phase, 579 subjects with MDD received first-line treatment with citalopram hydrobromide for eight weeks, 20 mg daily for the first four weeks and 40 mg daily for the next four weeks. Citalopram, an approved treatment for MDD marketed in the United States as […]®, is from the drug class known as selective serotonin reuptake inhibitors. At the end of the eight weeks, subjects whose MADRS score had improved less than 50 percent and whose CGI-SI score was no lower than 4 were considered partial or non responders and randomized into the double blind second phase of the trial. In the double blind second phase, subjects continued their citalopram treatment and also received either add-on TC-5214 or add-on placebo for an additional eight weeks. The daily dosage of TC-5214 was initially 2 mg and could be increased at the discretion of the investigator to 4 mg and to 8 mg based on tolerability and therapeutic response. The primary outcome measure for the trial was mean change between TC-5214 and placebo from double blind baseline as measured by HAM-D at week 16. The intent to treat dataset included 265 subjects in the second phase. In more detail, a multi-center double-blind, randomized, placebo-controlled, parallel group, flexible dose titration study of TC-5214 as adjunctive therapy in subjects with major depressive disorder (MDD) who were inadequate responders to citalopram was conducted in centers in the US and India. The study consisted of a screening period, baseline/washout period, open-label phase, double-blind phase, and a follow-up visit. Subject participation in the study could continue for up to 16 weeks of treatment. Following a washout period of up to 28 days for other antidepressants, subjects with MDD and a MADRS total score >/=28 and a Clinical Global Impression-Severity (CGI-S) score >/=4 were enrolled on Day 1 into an open-label citalopram-only phase of the study. This phase lasted 8 weeks, with citalopram (CIT) dose increased from a once-daily dose of 20 mg (Day 1 through Week 4) to 40 mg (Week 4 through Week 8). A total of 579 subjects entered the open-label citalopram phase. […]

[1] = ITT and PP, at almost every assessment week, result in words
[2] = ITT, Double Blind Week 8 (Baseline), before TC-5214
[3] = ITT, Double Blind Week 18 (Follow-up)
[4] = ITT, Double Blind Week 18 LOCF (Follow-up)
[5] = ITT, Double Blind Week 18 LOCF (Follow-up), change from Week 16

CNC1(C)C2CCC(C2)C1(C)C (stereo in doubt) [TC-5214, (S)—N,2,3,3-tetramethylnorbornan-2-amine]
HAMD-17 total score change from baseline compared with placebo (ITT and PP populations, result in words): statistically significant decreases (improvements)
HAMD responders (reduction from baseline ≧50%) proportion compared with placebo [1]: higher proportion of responders
HAMD-17 remission proportion compared with placebo [1]: higher proportion of subjects in remission
HAMD-17 total score, observed Mean [2]: 23.5
HAMD-17 total score, observed Median [2]: 24.0
HAMD-17 Remission (Score ≦7): Subjects with Remission (number) (ITT, Double Blind Week 9): 1
HAMD-17 Remission (Score ≦7): Subjects with Remission (percentage) (ITT, Double Blind Week 9): (1%)
HAMD-17 Remission (Score ≦7): Subjects without Remission (number) (ITT, Double Blind Week 9): 132
HAMD-17 Remission (Score ≦7): Subjects without Remission (percentage) (ITT, Double Blind Week 9): (99%)
HAMD-17 Remission (Score ≦10): Subjects with Remission (number) (ITT, Double Blind Week 9): 4
HAMD-17 Remission (Score ≦10): Subjects with Remission (percentage) (ITT, Double Blind Week 9): (3%)
HAMD-17 Remission (Score ≦10): Subjects without Remission (number) (ITT, Double Blind Week 9): 129
HAMD-17 Remission (Score ≦10): Subjects without Remission (percentage) (ITT, Double Blind Week 9): (97%)
HAMD-17 reduction from baseline ≧50%: Subjects with Response (number) (ITT, Double Blind Week 9): 4
HAMD-17 reduction from baseline ≧50%: Subjects with Response (percentage) (ITT, Double Blind Week 9): (3%)
HAMD-17 reduction from baseline ≧50%: Subjects without Response (number) (ITT, Double Blind Week 9): 129
HAMD-17 reduction from baseline ≧50%: Subjects without Response (percentage) (ITT, Double Blind Week 9): (97%)
HAMD-17 Remission (Score ≦7): Subjects with Remission (number) (ITT, Double Blind Week 10): 6
HAMD-17 Remission (Score ≦7): Subjects with Remission (percentage) (ITT, Double Blind Week 10): (5%)
HAMD-17 Remission (Score ≦7): Subjects without Remission (number) (ITT, Double Blind Week 10): 127
HAMD-17 Remission (Score ≦7): Subjects without Remission (percentage) (ITT, Double Blind Week 10): (95%)
HAMD-17 Remission (Score ≦10): Subjects with Remission (number) (ITT, Double Blind Week 10): 20
HAMD-17 Remission (Score ≦10): Subjects with Remission (percentage) (ITT, Double Blind Week 10): (15%)
HAMD-17 Remission (Score ≦10): Subjects without Remission (number) (ITT, Double Blind Week 10): 113
HAMD-17 Remission (Score ≦10): Subjects without Remission (percentage) (ITT, Double Blind Week 10): (85%)
HAMD-17 reduction from baseline ≧50%: Subjects with Response (number) (ITT, Double Blind Week 10): 23
HAMD-17 reduction from baseline ≧50%: Subjects with Response (percentage) (ITT, Double Blind Week 10): (17%)
HAMD-17 reduction from baseline ≧50%: Subjects without Response (number) (ITT, Double Blind Week 10): 110
HAMD-17 reduction from baseline ≧50%: Subjects without Response (percentage) (ITT, Double Blind Week 10): (83%)
HAMD-17 Remission (Score ≦7): Subjects with Remission (number) (ITT, Double Blind Week 12): 20
HAMD-17 Remission (Score ≦7): Subjects with Remission (percentage) (ITT, Double Blind Week 12): (15%)
HAMD-17 Remission (Score ≦7): Subjects without Remission (number) (ITT, Double Blind Week 12): 113
HAMD-17 Remission (Score ≦7): Subjects without Remission (percentage) (ITT, Double Blind Week 12): (85%)
HAMD-17 Remission (Score ≦10): Subjects with Remission (number) (ITT, Double Blind Week 12): 40
HAMD-17 Remission (Score ≦10): Subjects with Remission (percentage) (ITT, Double Blind Week 12): (30%)
HAMD-17 Remission (Score ≦10): Subjects without Remission (number) (ITT, Double Blind Week 12): 93
HAMD-17 Remission (Score ≦10): Subjects without Remission (percentage) (ITT, Double Blind Week 12): (70%)
HAMD-17 reduction from baseline ≧50%: Subjects with Response (number) (ITT, Double Blind Week 12): 45
HAMD-17 reduction from baseline ≧50%: Subjects with Response (percentage) (ITT, Double Blind Week 12): (34%)
HAMD-17 reduction from baseline ≧50%: Subjects without Response (number) (ITT, Double Blind Week 12): 88
HAMD-17 reduction from baseline ≧50%: Subjects without Response (percentage) (ITT, Double Blind Week 12): (66%)
HAMD-17 Remission (Score ≦7): Subjects with Remission (number) (ITT, Double Blind Week 14): 37
HAMD-17 Remission (Score ≦7): Subjects with Remission (percentage) (ITT, Double Blind Week 14): (28%)
HAMD-17 Remission (Score ≦7): Subjects without Remission (number) (ITT, Double Blind Week 14): 96
HAMD-17 Remission (Score ≦7): Subjects without Remission (percentage) (ITT, Double Blind Week 14): (72%)
HAMD-17 Remission (Score ≦10): Subjects with Remission (number) (ITT, Double Blind Week 14): 60
HAMD-17 Remission (Score ≦10): Subjects with Remission (percentage) (ITT, Double Blind Week 14): (45%)
HAMD-17 Remission (Score ≦10): Subjects without Remission (number) (ITT, Double Blind Week 14): 73
HAMD-17 Remission (Score ≦10): Subjects without Remission (percentage) (ITT, Double Blind Week 14): (55%)
HAMD-17 reduction from baseline ≧50%: Subjects with Response (number) (ITT, Double Blind Week 14): 72
HAMD-17 reduction from baseline ≧50%: Subjects with Response (percentage) (ITT, Double Blind Week 14): (54%)
HAMD-17 reduction from baseline ≧50%: Subjects without Response (number) (ITT, Double Blind Week 14): 61
HAMD-17 reduction from baseline ≧50%: Subjects without Response (percentage) (ITT, Double Blind Week 14): (46%)
HAMD-17 Remission (Score ≦7): Subjects with Remission (number) (ITT, Double Blind Week 16): 52
HAMD-17 Remission (Score ≦7): Subjects with Remission (percentage) (ITT, Double Blind Week 16): (39%)
HAMD-17 Remission (Score ≦7): Subjects without Remission (number) (ITT, Double Blind Week 16): 81
HAMD-17 Remission (Score ≦7): Subjects without Remission (percentage) (ITT, Double Blind Week 16): (61%)
HAMD-17 Remission (Score ≦10): Subjects with Remission (number) (ITT, Double Blind Week 16): 83
HAMD-17 Remission (Score ≦10): Subjects with Remission (percentage) (ITT, Double Blind Week 16): (62%)
HAMD-17 Remission (Score ≦10): Subjects without Remission (number) (ITT, Double Blind Week 16): 50
HAMD-17 Remission (Score ≦10): Subjects without Remission (percentage) (ITT, Double Blind Week 16): (38%)
HAMD-17 reduction from baseline ≧50%: Subjects with Response (number) (ITT, Double Blind Week 16): 90
HAMD-17 reduction from baseline ≧50%: Subjects with Response (percentage) (ITT, Double Blind Week 16): (68%)
HAMD-17 reduction from baseline ≧50%: Subjects without Response (number) (ITT, Double Blind Week 16): 43
HAMD-17 reduction from baseline ≧50%: Subjects without Response (percentage) (ITT, Double Blind Week 16): (32%)
HAMD-17 total score, observed Mean (ITT, Double Blind Week 16 LOCF): 9.8
HAMD-17 total score, observed Median (ITT, Double Blind Week 16 LOCF): 8.0
HAMD-17 Mean Difference between TC-5214 and Placebo (ITT, Double Blind Week 16 LOCF (change from Week 8)): 6.00
HAMD-17 Remission (Score ≦7): Subjects with Remission (number) [3]: 60
HAMD-17 Remission (Score ≦7): Subjects with Remission (percentage) [3]: (45%)
HAMD-17 Remission (Score ≦7): Subjects without Remission (number) [3]: 73
HAMD-17 Remission (Score ≦7): Subjects without Remission (percentage) [3]: (55%)
HAMD-17 Remission (Score ≦10): Subjects with Remission (number) [3]: 85
HAMD-17 Remission (Score ≦10): Subjects with Remission (percentage) [3]: (64%)
HAMD-17 Remission (Score ≦10): Subjects without Remission (number) [3]: 48
HAMD-17 Remission (Score ≦10): Subjects without Remission (percentage) [3]: (36%)
HAMD-17 reduction from baseline ≧50%: Subjects with Response (number) [3]: 89
HAMD-17 reduction from baseline ≧50%: Subjects with Response (percentage) [3]: (67%)
HAMD-17 reduction from baseline ≧50%: Subjects without Response (number) [3]: 44
HAMD-17 reduction from baseline ≧50%: Subjects without Response (percentage) [3]: (33%)
HAMD-17 total score, observed Mean [4]: 9.4
HAMD-17 total score, observed Median [4]: 8.0
HAMD-17 Adjusted Mean change [5]: −0.70
HAMD-17 Mean Difference between TC-5214 and Placebo [5]: −0.13
HAMD-17 Difference vs Placebo + CIT (ITT, Week 8 to Week 16 LOCF): −6.0
HAMD-17 total (raw) score change from baseline compared with placebo by week (ITT, Weeks 10, 12, 14, and 16, result in words): statistically significant decreases (improvements)
